Values after ≈ are worked out from the molar mass of the structure shown. Each block holds one compound with its values, some of them ahead of it.
What was measured:
[1] = target: T1, Transient receptor potential cation channel subfamily V member 1 (Homo sapiens, UniProt Q8NER1); assay: Antagonist activity at human TRPV1; assay type: functional
Rattus norvegicus [2] = assay: Antiinflammatory activity against complete Freund's adjuvant-induced thermal hyperalgesia in po dosed rat; assay type: functional
[3] = Ratio of drug level in brain to plasma in rat at 10 µmol/kg, po; conditions: read-out: BPR
[4] = target: T1, Transient receptor potential cation channel subfamily V member 1; assay: Antagonist activity at human TRPV1 expressed in HEK293 cells assessed as inhibition of capsaicin-induced effect by capsaicin
Rattus norvegicus [5] = assay: Antiinflammatory activity in rat osteoarthritis model assessed as inhibition of thermal hyperalgesia in po dosed rat; assay type: functional
CYP3A4 = CYP3A4 (Homo sapiens, UniProt P08684); assay: Inhibition of CYP3A4 assessed as midazolam oxidation at 10 uM; assay type: ADME; conditions: probe midazolam
[6] = Half life in rat at 10 µmol/kg, po; conditions: in vivo
[7] = Terminal phase volume of distribution at steady state in iv dosed rat; assay type: ADME, organism-based; conditions: in vivo, read-out: Vbeta
[8] = Oral bioavailability in rat at 10 µmol/kg; conditions: in vivo
[9] = Aqueous solubility of the compound; assay type: physicochemical
Rattus norvegicus [10] = assay: Antiinflammatory activity against carrageenan-induced thermal hyperalgesia in po dosed rat; assay type: functional
[11] = Solubility in PEG-400; assay type: physicochemical
[12] = Genotoxicity in Salmonella Typhimurium by Ames test; assay type: toxicity; conditions: salmonella enterica subsp. enterica serovar typhimurium
Cytochrome P450 3A4 = Cytochrome P450 3A4 (Homo sapiens, UniProt P08684); assay: Inhibition of CYP3A4; assay type: ADME; conditions: TDE = time-dependent effect
[13] = Plasma clearance in iv dosed rat; assay type: ADME, organism-based
[14] = target: Transient receptor potential cation channel subfamily V member 1 (Rattus norvegicus, UniProt O35433); assay: Antagonist activity at rat TRPV1 assessed as inhibition of capsaicin-induced effect; assay type: functional
Rattus norvegicus [15] = assay: Antiinflammatory activity in rat osteoarthritis model assessed as reduction of pain in rat at 10 umol/kg, po single dose; set-up: scale not given: the % may be the effect or the level left
[16] = Cmax in rat at 10 µmol/kg, po; conditions: in vivo
Rattus norvegicus [17] = assay: Antiinflammatory activity in rat post operative pain model assessed as reduction in pain in rat at 100 umol/kg, po single dose; set-up: scale not given: the % may be the effect or the level left
Rattus norvegicus [18] = assay: Plasma clearance in rat at 10 µmol/kg, po; conditions: in vivo
[19] = target: T1, Transient receptor potential cation channel subfamily V member 1; assay: Antagonist activity at human TRPV1 expressed in HEK293 cells assessed as inhibition of N-arachidonoyl-dopamine-induced effect; assay type: functional, cell-based
[20] = Solubility in lipid; assay type: physicochemical
Rattus norvegicus [21] = assay: Toxicity in rat assessed as increase of body temperature at 100 umol/kg, po after 1 hr; assay type: organism-based; conditions: in vivo
Rattus norvegicus [22] = assay: Volume of distribution at steady state in rat at 10 µmol/kg, po; conditions: in vivo
Rattus norvegicus [23] = assay: Antiinflammatory activity in rat osteoarthritis model assessed as reduction of pain in rat at 10 umol/kg, po bid measured after 12 days; assay type: functional; set-up: scale not given: the % may be the effect or the level left

T1 sequence (Q8NER1 whole entry): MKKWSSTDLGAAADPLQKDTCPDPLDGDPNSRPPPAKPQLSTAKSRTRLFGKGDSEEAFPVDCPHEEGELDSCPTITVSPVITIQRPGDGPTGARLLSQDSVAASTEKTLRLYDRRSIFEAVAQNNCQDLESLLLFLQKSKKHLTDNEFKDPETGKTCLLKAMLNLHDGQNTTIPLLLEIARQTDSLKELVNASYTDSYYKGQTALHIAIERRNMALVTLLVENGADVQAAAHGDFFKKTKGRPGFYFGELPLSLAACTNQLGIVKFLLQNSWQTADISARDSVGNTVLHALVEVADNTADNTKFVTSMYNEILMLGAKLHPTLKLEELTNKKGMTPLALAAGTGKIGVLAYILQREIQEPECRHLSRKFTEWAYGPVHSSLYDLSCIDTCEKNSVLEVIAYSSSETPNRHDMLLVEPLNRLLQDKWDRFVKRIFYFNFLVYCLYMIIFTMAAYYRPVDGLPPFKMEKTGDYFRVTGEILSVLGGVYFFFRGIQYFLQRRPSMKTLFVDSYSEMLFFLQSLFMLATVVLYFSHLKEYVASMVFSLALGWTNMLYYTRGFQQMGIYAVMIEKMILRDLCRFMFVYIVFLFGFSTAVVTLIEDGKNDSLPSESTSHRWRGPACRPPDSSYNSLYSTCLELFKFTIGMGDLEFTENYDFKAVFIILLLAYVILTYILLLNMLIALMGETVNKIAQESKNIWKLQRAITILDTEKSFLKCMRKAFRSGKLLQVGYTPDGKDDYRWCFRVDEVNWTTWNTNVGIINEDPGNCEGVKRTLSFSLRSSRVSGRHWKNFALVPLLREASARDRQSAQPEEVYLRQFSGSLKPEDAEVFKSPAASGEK
CYP3A4, sequence (P08684 whole entry): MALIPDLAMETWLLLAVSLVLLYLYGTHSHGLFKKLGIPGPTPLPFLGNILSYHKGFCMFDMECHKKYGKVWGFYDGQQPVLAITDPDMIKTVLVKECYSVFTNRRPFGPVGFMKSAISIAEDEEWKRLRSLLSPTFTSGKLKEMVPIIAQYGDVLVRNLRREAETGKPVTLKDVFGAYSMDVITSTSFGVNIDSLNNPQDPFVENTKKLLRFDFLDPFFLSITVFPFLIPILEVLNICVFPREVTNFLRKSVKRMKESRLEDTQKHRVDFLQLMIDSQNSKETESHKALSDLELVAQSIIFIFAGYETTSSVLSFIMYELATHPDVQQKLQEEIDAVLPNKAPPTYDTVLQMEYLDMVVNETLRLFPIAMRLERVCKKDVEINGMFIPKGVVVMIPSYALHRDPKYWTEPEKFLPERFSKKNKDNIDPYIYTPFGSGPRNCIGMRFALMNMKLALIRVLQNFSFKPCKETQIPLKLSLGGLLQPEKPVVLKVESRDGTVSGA
Transient receptor potential cation channel subfamily V member 1 (Rattus norvegicus, UniProt O35433), sequence (O35433 whole entry): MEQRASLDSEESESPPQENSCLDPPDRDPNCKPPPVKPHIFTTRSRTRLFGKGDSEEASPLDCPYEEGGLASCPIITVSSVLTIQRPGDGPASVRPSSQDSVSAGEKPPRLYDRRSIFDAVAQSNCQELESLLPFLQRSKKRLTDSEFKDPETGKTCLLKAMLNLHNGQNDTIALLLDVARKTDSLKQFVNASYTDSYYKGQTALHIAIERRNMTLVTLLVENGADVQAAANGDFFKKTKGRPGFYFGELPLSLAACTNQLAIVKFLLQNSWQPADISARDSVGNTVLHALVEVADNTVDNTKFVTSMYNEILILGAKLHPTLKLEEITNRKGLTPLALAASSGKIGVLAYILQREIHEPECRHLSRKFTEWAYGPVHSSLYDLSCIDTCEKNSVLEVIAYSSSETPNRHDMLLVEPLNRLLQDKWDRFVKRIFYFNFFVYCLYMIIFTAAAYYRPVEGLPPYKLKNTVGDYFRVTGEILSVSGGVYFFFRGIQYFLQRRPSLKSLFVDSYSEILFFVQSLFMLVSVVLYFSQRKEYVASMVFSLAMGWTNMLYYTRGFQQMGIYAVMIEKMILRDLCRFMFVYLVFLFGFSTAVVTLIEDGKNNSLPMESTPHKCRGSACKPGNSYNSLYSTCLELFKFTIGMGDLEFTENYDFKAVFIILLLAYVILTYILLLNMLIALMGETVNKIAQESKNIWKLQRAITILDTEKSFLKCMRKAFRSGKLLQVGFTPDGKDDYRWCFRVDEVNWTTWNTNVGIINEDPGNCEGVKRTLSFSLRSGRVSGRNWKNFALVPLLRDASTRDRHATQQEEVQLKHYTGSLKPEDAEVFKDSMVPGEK
Cytochrome P450 3A4, sequence (P08684 whole entry): as the sequence (P08684 whole entry) above

Structure (SMILES): Cc1ccc(CNC(=O)Nc2cccc3[nH]ncc23)c(N2CCCCC2)n1
IC50 [1]: 16 nM | ED50 (Rattus norvegicus [2]): 53 µmol/kg

Structure (SMILES): O=C(NCc1ccc(-c2ccccc2)nc1N1CCCCC1)Nc1cccc2[nH]ncc12
IC50 [1]: 14 nM | ED50 (Rattus norvegicus [2]): 37 µmol/kg

Structure (SMILES): CC(C)n1ncc2c(NC(=O)NCc3ccc(C(F)(F)F)cc3CCC(C)(C)C)cccc21
IC50 [4]: 69 nM

Structure (SMILES): O=C(NCc1ccc(C(F)(F)F)nc1N1CCCCC1)Nc1cccc2[nH]ncc12
IC50 [1]: 3.5 nM | ED50 (Rattus norvegicus [2]): 30 µmol/kg

Structure (SMILES): Cc1ccc(CNC(=O)Nc2cccc3[nH]ncc23)c(N2CCOCC2)n1
IC50 [1]: 125 nM

Structure (SMILES): O=C(NCc1ccc(C(F)(F)F)nc1N1CCOCC1)Nc1cccc2[nH]ncc12
IC50 [1]: 12 nM | ED50 (Rattus norvegicus [2]): 33 µmol/kg

Structure (SMILES): CC(C)(C)c1ccc2c(c1)CC[C@H]2NC(=O)Nc1cccc2[nH]ncc12 [ABT-102]
Kp [3]: 0.32

Structure (SMILES): COCCCc1nc(C(F)(F)F)ccc1CNC(=O)Nc1cccc2[nH]ncc12
IC50 [1]: 12 nM | ED50 (Rattus norvegicus [2]): > 30 µmol/kg

Structure (SMILES): Cn1ncc2c(NC(=O)NCc3ccc(C(F)(F)F)cc3CCC(C)(C)C)cccc21
ED50 (Rattus norvegicus [5]): 66 µmol/kg | inhibition at 10 µM (CYP3A4): 10% | IC50 [14]: 277 nM | Activity (Rattus norvegicus [15]): 20% | Cmax [16]: 140 ng/mL | half-life [6]: 3.1 h | Activity (Rattus norvegicus [17]): 45% | clearance (Rattus norvegicus [18]): 13.3 mL/min/kg | IC50 [19]: 15 nM | solubility [20]: > 67 µg/mL | T (Rattus norvegicus [21]): 0.9 °C | IC50 [4]: 7 nM | bioavailability [8]: 58% | solubility [9]: < 0.01 µg/mL | Vdss (Rattus norvegicus [22]): 3.4 L/kg | Kp [3]: 0.32 | ED50 (Rattus norvegicus [10]): 25 µmol/kg | Activity (Rattus norvegicus [23]): 67%

Structure (SMILES): O=C(NCc1ccc(C(F)(F)F)nc1Oc1ccccc1)Nc1cccc2[nH]ncc12
IC50 [1]: 9 nM | ED50 (Rattus norvegicus [2]): 30 µmol/kg

Structure (SMILES): CCn1ncc2c(NC(=O)NCc3ccc(C(F)(F)F)cc3CCC(C)(C)C)cccc21
IC50 [4]: 53 nM

Continued, in another order:

IC50 [1]: 6 nM | Kp [3]: 0.02
Structure (SMILES): CC(C)(C)COc1nc(C(F)(F)F)ccc1CNC(=O)Nc1cccc2[nH]ncc12
ED50 (Rattus norvegicus [2]): > 100 µmol/kg

IC50 [1]: 184 nM
Structure (SMILES): O=C(NCc1ccc(C(F)(F)F)nc1)Nc1cccc2[nH]ncc12
ED50 (Rattus norvegicus [2]): 81 µmol/kg

IC50 [1]: 9 nM
Structure (SMILES): O=C(NCc1ccc(C(F)(F)F)cc1Oc1ccccc1)Nc1cccc2[nH]ncc12
ED50 (Rattus norvegicus [2]): 22 µmol/kg

IC50 [1]: 5 nM
Structure (SMILES): CC(C)(C)CCc1nc(C(F)(F)F)ccc1CNC(=O)Nc1cccc2[nH]ncc12
ED50 (Rattus norvegicus [2]): 100 µmol/kg

IC50 [1]: 6 nM
Structure (SMILES): CC(C)(F)CCc1cc(C(F)(F)F)ccc1CNC(=O)Nc1cccc2[nH]ncc12
ED50 (Rattus norvegicus [2]): 58 µmol/kg

IC50 [1]: 8 nM
Structure (SMILES): O=C(NCc1ccc(C(F)(F)F)cc1CCc1ccccc1)Nc1cccc2[nH]ncc12
ED50 (Rattus norvegicus [2]): 30 µmol/kg

IC50 [1]: 8 nM
Structure (SMILES): COCCCc1cc(C(F)(F)F)ccc1CNC(=O)Nc1cccc2[nH]ncc12

inhibition at 10 µM (CYP3A4): 86% | half-life [6]: 4.3 h | IC50 [1]: 4.3 nM | Vd [7]: 5.4 L/kg | bioavailability [8]: 35% | solubility [9]: 0.42 µg/mL (≈ 1 µM) | Kp [3]: 0.45 | solubility [11]: > 100 µg/mL | inhibition (INH) (Cytochrome P450 3A4): tde | clearance [13]: 20 mL/min/kg
Structure (SMILES): CC(C)(C)CCc1cc(C(F)(F)F)ccc1CNC(=O)Nc1cccc2[nH]ncc12
ED50 (Rattus norvegicus [5]): 71 µmol/kg | ED50 (Rattus norvegicus [2]): 15 µmol/kg | ED50 (Rattus norvegicus [10]): 7 µmol/kg | Activity [12]: Non-toxic

IC50 [1]: 9 nM
Structure (SMILES): CC(C)c1cc(C(F)(F)F)ccc1CNC(=O)Nc1cccc2[nH]ncc12
ED50 (Rattus norvegicus [2]): 14 µmol/kg

IC50 [1]: 18 nM
Structure (SMILES): COCCOc1nc(C(F)(F)F)ccc1CNC(=O)Nc1cccc2[nH]ncc12
